Key:
[1] = system: Carrageenin edema (right-hind paw); test: Anti-inflammatory activity; Carrageenin edema (C.E. Method); format: in vivo, rats (Jcl: SD, male); conditions: rat, oral, 1 h before carrageenin; edema measured 3 hr later; dose not given
Protocol: A. Anti-inflammatory activity; Carrageenin edema (C.E. Method)
The anti-inflammatory activities of test compounds were estimated in a group [Six Jcl: SD rats (male, weighing 180-220 g)] by the method of Winter et al. [Proc. Soc. Exp. Biol. 111, 544 (1962)].
After measuring the volume of the right-hind paw (a), the rats were given orally 5 ml of water. One hour after oral administration of the test compounds, 0.05 ml each of a 1% carrageenin solution in physiological saline was subcutaneously injected at the sole of right-hind paw. Three hr. later, the volume of the right-hind paw was measured (b). The volume of edema was obtained from the difference […] between the two volumes. By comparing the volume of edema of the group, to which test compound was administered, with that of the group, to which no test compound was administered, an inhibitory effect of the compound on the edema was determined.

[2] = system: Phenylquinone writhing syndrome; test: Analgesic action: Phenylquinone writhing syndrome (P.Q. Method); format: in vivo, mice (Slc:ICR, male); conditions: for P.Q. Method (inhibitory effect on writhing and stretching): mouse, oral, 30 minutes before phenylquinone; for analgesic action: statement in words
Protocol: B. Analgesic action: Phenylquinone writhing syndrome (P.Q. Method)
The test was conducted by following the method Siegmund et al. [Proc. Soc. exp. Biol. Med. 95, 729 (1957).] employing a group [ten Slc:ICR mice (male, 4-weeks old, weighing 20±2 g)]. Test compounds were administered orally 30 minutes before intraperitoneal injection of 0.02% phenylquinone by 0.1 ml/body weight of 10 g. Then, the frequency of responses, i.e. writhing and stretching was counted in each animal for 20 minutes. The average frequencies in the test group and the control group were compared, and an inhibitory effect of the compounds on this response was determined.

[3] = system: Water-immersion stress-induced gastric ulcer; test: Water-immersion stress-induced gastric ulcer (W.I. Method); format: in vivo, rats (SD, male); conditions: for W.I. Method (inhibition ratio of ulcer index): rat, 50 mg/kg, 23° C. water immersion for five hours; for anti-ulcer action: statement in words
Protocol: C. Water-immersion stress-induced gastric ulcer (W.I. Method)
Male SD rats (7-weeks old, weighing 190-240 g) were used after a 24 hr. fast in groups of six animals. According to the method of Takagi and Okabe [Jpn. J. Pharmacol., 18, 9 (1968)], the animals were placed in a stress cage made of stainless steel and immersed vertically to the level of xiphoid process in a water bath maintained at 23° C. for five hours. The length (mm) of individual lesions in fundic mucosa was measured under a dissecting microscope with a 1-mm square-grid eye piece (X10), and the sum of the length of individual lesions for each stomach was used as an ulcer index. The ulcer index of the test group was compared with that of the control group, and the inhibition ratio was calculated.

mice = test: Acute toxicity Test in mice; format: in vivo, mice (ICR, male); conditions: mouse, oral, 500 mg/kg, one week, groups of five
Protocol: D. Acute toxicity Test in mice
Five-weeks old ICR-male mice were used in groups of five animals. Each animal was orally administered with 500 mg/kg of each test compound. Then, during the subsequent one week, the number of dead animals was counted.

anti-pyretic action = format: in vivo; conditions: statement in words, no test data
platelet aggregation = platelet aggregation controlling (inhibiting) action; format: cell-based; conditions: statement in words, no test data
[4] = system: thromboxane A2 (TXA2) synthetase; test: thromboxane A2 (TXA2) synthetase inhibiting action; format: biochemical; conditions: statement in words, no test data

Nc1nc(-c2ccc(O)cc2)c(-c2cccnc2)s1 [compound 9]
C.E. Method (inhibitory effect on the carrageenin edema) [1]: 16.9 | P.Q. Method (inhibitory effect on writhing and stretching) ([2]; 50 mg/kg): 40.5 | W.I. Method (inhibition ratio of ulcer index) [3]: 71 | Acute Toxicity (number of dead animals / animals) (mice): 0/5

CNc1nc(-c2ccc3c(c2)OCO3)c(-c2cccnc2)s1 [2-methylamino-4-(3,4-methylenedioxyphenyl)-5-(3-pyridyl)-1,3-thiazole]
analgesic action [2]: particularly excellent | anti-ulcer action [3]: particularly excellent | anti-pyretic action (anti-pyretic action): particularly excellent

c1ccc(-c2nc(C3CCCCC3)sc2-c2cccnc2)cc1 [2-cyclohexyl-4-phenyl-5-(3-pyridyl)-1,3-thiazole]
platelet aggregation controlling action (platelet aggregation): partienlarly excellent

COc1ccc(-c2nc(N)sc2-c2ccncc2)cc1 [compound 17]
C.E. Method (inhibitory effect on the carrageenin edema) [1]: 48.2 | P.Q. Method (inhibitory effect on writhing and stretching) ([2]; 50 mg/kg): 80.7 | W.I. Method (inhibition ratio of ulcer index) [3]: 79 | Acute Toxicity (number of dead animals / animals) (mice): 0/5

CNc1nc(-c2ccc3c(c2)CCC3)c(-c2cccnc2)s1 [compound 79, 4-(5-indanyl)-2-methylamino-5-(3-pyridyl)-1,3-thiazole]
analgesic action [2]: particularly excellent | anti-ulcer action [3]: particularly excellent | anti-pyretic action (anti-pyretic action): particularly excellent

COc1ccc(-c2nc(CCCC(=O)O)sc2-c2cccnc2)cc1 [compound 43, 2-(3-carboxypropyl)-4-(4-methoyphenyl)-5-(3-pyridyl)-1,3-thiazole]
thromboxane synthetase inhibiting action [4]: particularly excellent

O=C(O)CCCc1nc(-c2ccccc2)c(-c2cccnc2)s1
thromboxane synthetase inhibiting action [4]: particularly excellent

COc1ccc(-c2nc(N)sc2-c2cccnc2)cc1 [2-amino-4-(4-methoxyphenyl)-5-(3-pyridyl)-1,3-thiazole]
analgesic action [2]: particularly excellent | anti-ulcer action [3]: particularly excellent | anti-pyretic action (anti-pyretic action): particularly excellent

CNc1nc(-c2ccc(OC)cc2)c(-c2cccnc2)s1 [Compound No. 1, 4-(4-methoxyphenyl)-2-methylamino-5-(3-pyridyl)-1,3-thiazole]
C.E. Method (inhibitory effect on the carrageenin edema) [1]: 60 | P.Q. Method (inhibitory effect on writhing and stretching) ([2]; 25 mg/kg): 96.8 | analgesic action [2]: particularly excellent | W.I. Method (inhibition ratio of ulcer index) [3]: 86 | anti-ulcer action [3]: particularly excellent | Acute Toxicity (number of dead animals / animals) (mice): 0/5 | anti-pyretic action (anti-pyretic action): particularly excellent

COc1ccc(-c2nc(N)sc2-c2cccnc2)cc1 [compound 2, 2-amino-4-(4-methoxyphenyl)-5-(3-pyridyl)-1,3-thiazole]
C.E. Method (inhibitory effect on the carrageenin edema) [1]: 77.1 | P.Q. Method (inhibitory effect on writhing and stretching) ([2]; 50 mg/kg): 52.6 | W.I. Method (inhibition ratio of ulcer index) [3]: 70 | Acute Toxicity (number of dead animals / animals) (mice): 0/5

COc1ccc(-c2nc(C3CCCCC3)sc2-c2cccnc2)cc1 [2-cyclohexyl-4-(4-methoxyphenyl)-5-(3-pyridyl)-1,3-thiazole]
platelet aggregation controlling action (platelet aggregation): partienlarly excellent

Nc1nc(-c2ccccc2)c(-c2ccccn2)s1 [compound 13]
C.E. Method (inhibitory effect on the carrageenin edema) [1]: 7.0 | P.Q. Method (inhibitory effect on writhing and stretching) ([2]; 50 mg/kg): 67.5 | W.I. Method (inhibition ratio of ulcer index) [3]: 66 | Acute Toxicity (number of dead animals / animals) (mice): 0/5

COc1ccc(-c2nc(-c3ccccc3)sc2-c2cccnc2)cc1 [compound 28, 2-phenyl-4-(4-methoxyphenyl)-5-(3-pyridyl)-1,3-thiazole]
C.E. Method (inhibitory effect on the carrageenin edema) [1]: 15.7 | P.Q. Method (inhibitory effect on writhing and stretching) ([2]; 50 mg/kg): 63.3 | W.I. Method (inhibition ratio of ulcer index) [3]: 33 | Acute Toxicity (number of dead animals / animals) (mice): 0/5

Nc1nc(-c2ccccc2)c(-c2cccnc2)s1 [Compound No. 4]
C.E. Method (inhibitory effect on the carrageenin edema) [1]: 63.7 | P.Q. Method (inhibitory effect on writhing and stretching) ([2]; 50 mg/kg): 78.9 | W.I. Method (inhibition ratio of ulcer index) [3]: 74 | Acute Toxicity (number of dead animals / animals) (mice): 0/5

CCNc1nc(-c2ccc3c(c2)CCC3)c(-c2cccnc2)s1 [2-ethylamino-4-(5-indanyl)-5-(3-pyridyl)-1,3-thiazole]
analgesic action [2]: particularly excellent | anti-ulcer action [3]: particularly excellent | anti-pyretic action (anti-pyretic action): particularly excellent

CCc1nc(-c2ccc(OC)cc2)c(-c2cccnc2)s1 [2-ethyl-4-(4-methoxyphenyl)-5-(3-pyridyl)-1,3-thiazole]
analgesic action [2]: particularly excellent | anti-ulcer action [3]: particularly excellent | anti-pyretic action (anti-pyretic action): particularly excellent

CCNc1nc(-c2ccc3c(c2)OCO3)c(-c2cccnc2)s1 [2-ethylamino-4-(3,4-methylenedioxyphenyl)-5-(3-pyridyl)-1,3-thiazole]
analgesic action [2]: particularly excellent | anti-ulcer action [3]: particularly excellent | anti-pyretic action (anti-pyretic action): particularly excellent

COc1ccc(-c2nc(-c3ccccc3)sc2-c2cccnc2)cc1 [2-phenyl-4-(4-methoxyphenyl)-5-(3-pyridyl)-1,3-thiazole]
platelet aggregation controlling action (platelet aggregation): partienlarly excellent

— US4612321A, “5-pyridyl-1,3-thiazole derivatives” (Takeda Chemical Industries, Inc., priority 1983, dated 1986)
